The test system of experiment [1] is H9c2. Put plainly: Upregulation of ER-beta expression in rat H9c2 cells after 24 hrs by western blot analysis. It is filed as functional, cell-based.
The test system of experiment [2] is H9c2. Kind of experiment: Inhibition of H2O2-induced loss of cell viability in rat H9c2 cells at 5,10 and 20 uM after 24 hrs by MTT assay in presence of ER inhibitor ICI182780. It is filed as functional, cell-based.
The target in experiment [3] is T1, Estrogen receptor (Rattus norvegicus) (UniProt P06211+Q62986). Kind of experiment: Activation of ER-alpha/beta in rat H9c2 cells assessed as increase in phosphorylated Akt level after 24 hrs by western blot analysis. It is filed as cell-based.
Experiment [4] deals with T1, Estrogen receptor (Rattus norvegicus). Kind of experiment: Activation of ER-alpha/beta in rat H9c2 cells assessed as phosphorylated Akt level at 5,10 and 20 uM after 24 hrs by western blot analysis in presence of ER inhibitor ICI182780. In kind it is cell-based.
Experiment [5] concerns H9c2. Kind of experiment: Inhibition of H2O2-induced apoptosis in rat H9c2 cells after 24 hrs by AO/EB staining based fluorescence microscopic analysis. It is filed as functional, cell-based.
Experiment [6] deals with H9c2. Kind of experiment: Inhibition of H2O2-induced apoptosis in rat H9c2 cells at 5,10 and 20 uM after 24 hrs by AO/EB staining based fluorescence microscopic analysis in presence of ER inhibitor ICI182780. In kind it is functional, cell-based.
The test system of experiment [7] is H9c2. Put plainly: Inhibition of H2O2-induced loss of cell viability in rat H9c2 cells at 5,10 and 20 uM after 24 hrs by MTT assay. In kind it is functional, cell-based.
For experiment [8], the system named is H9c2. Kind of experiment: Upregulation of ER-alpha expression in rat H9c2 cells after 24 hrs by western blot analysis. In kind it is functional, cell-based.

Activity calls are given as the source filed them. The rule behind the calls is not given here.

In ChEMBL document CHEMBL3739341, “Calycosin inhibits oxidative stress-induced cardiomyocyte apoptosis via activating estrogen receptor-α/β” (Bioorg Med Chem Lett, 2016) one finds Activity and inhibition data, which are given here for one molecule.

For `COc1ccc(-c2coc3cc(O)ccc3c2=O)cc1O`, the Activity entry in experiment [1] and in experiment [8] was “Dose-dependent effect” in each case. For the same molecule, the inhibition entry in experiment [2] and in experiment [6] was “inactive” each time. The result in experiment [3] was Active. The result in experiment [4] was inactive. In experiment [5], the inhibition result was “Dose-dependent effect”. Moreover, in experiment [7], the inhibition entry was “Active”.
